Measured values from patent US20240368149A1, “ANALOGS OF XANOMELINE” (Terran Biosciences Inc., priority 2023, published 2024).
Read-outs that look alike come from different tables or passages of the source.

Legend:
[1] = Rat PK: plasma prodrug concentration after intramuscular (IM) dosing of xanomeline prodrugs at 5 mg/kg (Example A-4); assay type: in vivo, male Sprague-Dawley (SD) rats; settings: male, Sprague-Dawley, IM 5 mg/kg of xanomeline; for Cmax / AUC(0-inf) / AUC(0-t): im; for AUC(0-inf): read-out: Prodrug AUCINF_obs; for AUC(0-t): read-out: Prodrug AUClast; for concentration at 0.5 h: 0.500 h
Experimental: (§1) • Step 1: A stock solution of the compound(s) were prepared to 1 mg/ml in DMSO • Step 2: A 10,000 ng/mL matched matrix standard was prepared using the stock solution(s) • Step 3: Calibration standards in matched matrix were prepared between 10,000 ng/ml and 0.5 ng/mL using serial dilution • Step 4: QC samples were prepared in matched matrix at 4000, 800, 400, 40 and 10 ng/mL
(§2) • Step 1: Add 10 μL of the standards, QCs and samples to a 96-well plate (extraction plate) • Step 2: To each standard, QC and test sample, add 100 μL of ISZ • Step 3: Sonicate for 2 min then mix the plate for approximately 2 min at 1200 rpm on a plate shaker • Step 4: Centrifuge the plate at 3000 rpm for 5 min • Step 5: Add 50 μL 0.1% formic acid in UP H2O to wells of a new 96-well plate • Step 6: Transfer 50 μL extracted sample to relevant position in second 96-well plate • Step 7: Mix at 1200 rpm for 2 min • Step 8: Heat seal and analyse on the LC-MS/MS system • Instrument: Xevo TQ-D with CTC Autosampler
(§3) Samples were sent for method optimization and measurement of prodrug via unique calibration lines and following acceptance QC's. Dose formulation concentrations were also measured, and PK parameters were determined (Cmax (ng/mL), Tmax (hr), Cl (ml/min/kg), Vdss (L/kg), t½ (hr), AUC0-t (ng/mL*hr), AUC0-inf (ng/mL*hr), MRT (hr), Bioavailability (% F) where warranted) using WinNon Lin software. Data (including bioanalytical results and assay performance) were reported in a tabulated format and QC'd.
Formulation for IM administration: All compounds were formulated as solutions or fine suspensions in saline at 12.5 mg API/mL. This provided doses of 5 mg/kg (equivalent of xanomeline) when given to a 250 g rat in a 100 μL dosing volume.
The pharmacokinetic properties of the synthesized xanomeline prodrugs after intramuscular administration in a rat model were assessed. The concentration of prodrug was measured in each rat at various sampling timepoints after intramuscular administration of the synthesized xanomeline prodrugs to rats.
Dose formulations were made at equivalent concentrations of active compound (xanomeline) adjusted for molecular weight of the compounds. The synthesized xanomeline prodrugs were dosed at 5 mg/kg intramuscular (IM) nominal dose. Nominal doses were used in PK parameter determinations.

[2] = Rat PK: plasma prodrug concentration after intravenous (IV) dosing of xanomeline prodrugs at 1 mg/kg (Example A-6); assay type: in vivo, male Sprague-Dawley (SD) rats; settings: male, Sprague-Dawley, IV 1 mg/kg of xanomeline; for concentration at 0.25 h / concentration at 0.5 h / concentration at 0.75 h / Cmax / AUC(0-inf) / AUC(0-t): iv, 1 mg/kg; for concentration at 0.25 h: 0.250 h; for concentration at 0.25 h / concentration at 0.5 h / concentration at 0.75 h: read-out: Prodrug Plasma Concentrations Following Intravenous Dosing; for concentration at 0.5 h: 0.500 h; for concentration at 0.75 h: 0.750 h; for AUC(0-inf): read-out: Prodrug AUCINF_obs; for AUC(0-t): read-out: Prodrug AUClast
Experimental: as §1, §2, §3
Compound was dissolved in DMSO:HPCD (20% w/v in water) [10:90] 0.5 mg API/mL to provide doses of 1 mg/kg when administered IV in a 2 mL/kg dosing volume.
The pharmacokinetic properties of the synthesized xanomeline prodrugs after intravenous administration in a rat model were assessed. The concentration of prodrug was measured in each rat at various sampling timepoints after intravenous administration of the synthesized xanomeline prodrugs to rats.
Dose formulations were made at equivalent concentrations of active compound (xanomeline) adjusted for molecular weight of the compounds. The synthesized xanomeline prodrugs were dosed at 1 mg/kg intravenous (IV) nominal dose. Nominal doses were used in PK parameter determinations.

[3] = 5 mg/kg, analyte prodrug, individual animals
[4] = intramuscular, 5 mg/kg, Mean, read-out: Prodrug Plasma Concentrations Following Intramuscular Dosing
[5] = intramuscular, 5 mg/kg, individual animals, read-out: Prodrug Plasma Concentrations Following Intramuscular Dosing
[6] = analyte prodrug, individual animals

Tmax ([1]; analyte prodrug, Mean): 30 min
Cmax ([1]; 5 mg/kg, analyte prodrug, Mean): 218 ng/mL
AUC(0-inf) ([1]; 5 mg/kg, analyte prodrug, Mean): 697 ng·h/mL
AUC(0-t) ([1]; 5 mg/kg, analyte prodrug, Mean): 618 ng·h/mL
Cmax [1, 3]: 284 ng/mL
AUC(0-inf) [1, 3]: 891 ng·h/mL
AUC(0-t) [1, 3]: 667 ng·h/mL
concentration at 0.5 h [1, 4]: 218 ng/mL
concentration at 0.5 h [1, 5]: 284 ng/mL
concentration at 1 h [1, 4]: 128 ng/mL
concentration at 1 h [1, 5]: 115 ng/mL
concentration at 2 h [1, 4]: 83 ng/mL
concentration at 2 h [1, 5]: 80.2 ng/mL
concentration at 4 h [1, 4]: 35.9 ng/mL
concentration at 4 h [1, 5]: 38.6 ng/mL
concentration at 8 h ([1]; intramuscular, 5 mg/kg, 8.00 h, Mean, read-out: Prodrug Plasma Concentrations Following Intramuscular Dosing): 13.7 ng/mL
concentration at 24 h ([1]; intramuscular, 5 mg/kg, 24.0 h, Mean, read-out: Prodrug Plasma Concentrations Following Intramuscular Dosing): 1.59 ng/mL
concentration at 31 h [1, 4]: 1.04 ng/mL
concentration at 31 h [1, 5]: 1.01 ng/mL
concentration at 48 h [1, 4]: 0.666 ng/mL
concentration at 48 h [1, 5]: 0.775 ng/mL
concentration at 96 h [1, 4]: 0.255 ng/mL
concentration at 96 h [1, 5]: 0.764 ng/mL
Tmax [2, 6]: 15 min
concentration at 0.25 h ([2]; Mean): 27.2 ng/mL
concentration at 0.25 h ([2]; individual animals): 35.4 ng/mL
concentration at 0.5 h ([2]; Mean): 11.8 ng/mL
concentration at 0.5 h ([2]; individual animals): 15.2 ng/mL
concentration at 0.75 h ([2]; Mean): 7.1 ng/mL
concentration at 0.75 h ([2]; individual animals): 8.62 ng/mL
Cmax ([2]; analyte prodrug, Mean): 27.2 ng/mL
AUC(0-inf) ([2]; analyte prodrug, Mean): 22.9 ng·h/mL
AUC(0-t) ([2]; analyte prodrug, Mean): 17.8 ng·h/mL
Cmax [2, 6]: 35.4 ng/mL
AUC(0-inf) [2, 6]: 27.1 ng·h/mL
AUC(0-t) [2, 6]: 24 ng·h/mL
SMILES: CCCCCCOc1nsnc1C1=CCC[N+](C)(C(C)OC(=O)C(C)(C)C)C1 (stereo not drawn) [Compound 19]
